Test results as given in patent US8541363B2, “Pyruvamide compounds as inhibitors of dust mite group 1 peptidase allergen and their use” (St George's Hosptial Medical School, priority 2010, dated 2013).
Where two headings read alike, the source gives them in different places.

How the values were obtained:
[1] = test system: Brown Norway rats sensitized to HDM allergens; experiment: Allergen challenge study in vivo (acute allergic bronchoconstriction); parameters: species or system rat; conditions: challenge 2 hours after intratracheal dosing (100 μL of a 40 μM solution), P<0.05, Mann-Whitney Rank Sum Test
Experimental: The studies were performed in male Brown Norway rats (approximate weight 350 g at time of allergen challenge) obtained from Harlan UK Ltd. Each animal was allocated a unique identification number after sensitisation, identified by a waterproof tail mark, and randomly assigned to a treatment group. All studies were conducted in accordance with the Animals (Scientific Procedures) Act 1986, with UK Home Office Guidance on the implementation of the Act and with all applicable Codes of Practice for the care and housing of laboratory animals.
A mixture of HDM allergens was harvested from a laboratory culture of Dermatophagoides pteronyssinus. Allergen dose was standardized according to the Der p 1 content of the mixture as determined by an ELISA measurement referenced against the IUIS standard for Der p 1. […]
On Day 21 of the sensitization and challenge protocol, rats were anaesthetised with pentobarbitone (100 mg/kg, i.p.) and ventilated via a tracheal cannula (approximately 7 mL/kg, 1 Hz) with a mixture of air and oxygen (50:50). […] Ventilation was monitored by a flow transducer (Fleisch, type 0000) in-line with the respiratory pump. […] From these measurements of flow and differential pressure, both airways resistance (RL) and dynamic compliance (Cdyn) were calculated for each respiratory cycle on a digital electronic respiratory analyser (PMS, Mumed Ltd, UK). […]

Der p 1 = Der p 1 (Dermatophagoides pteronyssinus (European house dust mite), UniProt P08176); experiment: Der p 1 enzyme activity assay (FRET fluorogenic substrate); type: biochemical
[2] = Table 1, read-out: Der p 1 IC50

Chain of Der p 1 (P08176 99-320): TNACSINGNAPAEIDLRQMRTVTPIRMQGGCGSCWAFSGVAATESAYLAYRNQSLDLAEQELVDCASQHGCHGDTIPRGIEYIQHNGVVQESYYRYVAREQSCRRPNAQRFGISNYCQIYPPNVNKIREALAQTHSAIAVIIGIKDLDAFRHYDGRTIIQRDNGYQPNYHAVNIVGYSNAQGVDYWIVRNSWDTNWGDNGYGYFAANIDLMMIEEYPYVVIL

SMILES | magnitude of second allergen challenge (change in airway resistance) compared to first challenge [1] | IC50 (Der p 1; Der p 1 IC50) | IC50 (Der p 1; [2])
CC(C)[C@H](NC(=O)[C@H](C)NC(=O)[C@@H](NC(=O)c1ccccc1)C(C)(C)C)C(=O)C(=O)NC1CCCCC1 [PVA-026] | significantly reduced | < 20 nM | 14 nM
CC(C)[C@H](NC(=O)[C@H](C)NC(=O)[C@@H](NC(=O)c1ccncc1)C(C)(C)C)C(=O)C(=O)NC1CCCCC1 [PVA-038] | significantly reduced | < 20 nM | 13.3 nM
